# Reference: US20090018215A1, “Fumigant for wood parasitic nematodes and wood fumigation method” (priority 2004, published 2009)
# Like-named read-outs stand apart in the source and are kept apart here.
# System: Bursaphelenchus xylophilus
# Format: in vivo
# Settings: 24 hours
Compound,"effect of killing nematodes (control area: sulfuryl fluoride alone, 50 g/m^3, 15° C.)","effect of killing nematodes (control area: methyl iodide as is, injected through injection syringe, 96 g/m^3, 10° C.)"
O=S(=O)(F)F [sulfuryl fluoride],89%,
CI [methyl iodide],,98%
